Experimental data taken from patent US6982271B1, “Tropane analogs” (Georgetown University, priority 1999, dated 2006).

Columns and labels:
Assay type in all cases: cell-based
[1] = molecular target: norepinephrine transporter (NET) (Homo sapiens, UniProt P23975); assay: [3H]NE uptake inhibition at the norepinephrine transporter; settings: for NE/5-HT ratio / NE/DA ratio: ratio of uptake Ki; for NE/5-HT ratio: NE vs 5-HT; for NE/DA ratio: NE vs DA; for Ki: read-out: [3H]NE uptake, Ki ± SE
Excerpt: (§1) These novel ligands have been tested for their binding affinity at the DAT as well as for the inhibition of reuptake of NE, 5-HT, and DA at their specific transporters.

[2] = molecular target: serotonin transporter (5-HTT) (Homo sapiens, UniProt P31645); assay: [3H]5-HT uptake inhibition at the serotonin transporter; settings: for 5-HT/DA ratio: ratio of uptake Ki, 5-HT vs DA; for Ki: read-out: [3H]5-HT uptake, Ki ± SE; for higher activity at 5-HTT vs. DAT: selectivity 5-HTT vs DAT
serotonin transporter (5-HTT), sequence (P31645 whole entry, species assumed): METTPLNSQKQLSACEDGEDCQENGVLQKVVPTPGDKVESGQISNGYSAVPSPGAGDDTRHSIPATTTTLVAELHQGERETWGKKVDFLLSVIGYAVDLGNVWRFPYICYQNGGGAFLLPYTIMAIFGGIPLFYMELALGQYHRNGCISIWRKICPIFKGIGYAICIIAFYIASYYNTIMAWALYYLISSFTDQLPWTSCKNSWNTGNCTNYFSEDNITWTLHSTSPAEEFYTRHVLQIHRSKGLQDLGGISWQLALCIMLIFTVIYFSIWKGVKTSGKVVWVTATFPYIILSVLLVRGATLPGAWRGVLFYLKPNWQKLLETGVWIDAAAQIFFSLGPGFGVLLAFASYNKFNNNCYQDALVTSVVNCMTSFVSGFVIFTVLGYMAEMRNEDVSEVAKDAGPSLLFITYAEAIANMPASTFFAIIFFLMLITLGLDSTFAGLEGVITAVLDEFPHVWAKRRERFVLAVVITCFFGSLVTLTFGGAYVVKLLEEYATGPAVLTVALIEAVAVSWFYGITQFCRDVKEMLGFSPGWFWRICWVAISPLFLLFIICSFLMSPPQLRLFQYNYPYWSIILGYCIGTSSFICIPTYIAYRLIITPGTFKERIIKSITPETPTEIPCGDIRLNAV
Excerpt: as §1

[3] = molecular target: dopamine transporter (DAT) (Homo sapiens, UniProt Q01959); assay: [3H]DA uptake inhibition at the dopamine transporter; settings: read-out: [3H]DA uptake, Ki ± SE
dopamine transporter (DAT), sequence (Q01959 whole entry, species assumed): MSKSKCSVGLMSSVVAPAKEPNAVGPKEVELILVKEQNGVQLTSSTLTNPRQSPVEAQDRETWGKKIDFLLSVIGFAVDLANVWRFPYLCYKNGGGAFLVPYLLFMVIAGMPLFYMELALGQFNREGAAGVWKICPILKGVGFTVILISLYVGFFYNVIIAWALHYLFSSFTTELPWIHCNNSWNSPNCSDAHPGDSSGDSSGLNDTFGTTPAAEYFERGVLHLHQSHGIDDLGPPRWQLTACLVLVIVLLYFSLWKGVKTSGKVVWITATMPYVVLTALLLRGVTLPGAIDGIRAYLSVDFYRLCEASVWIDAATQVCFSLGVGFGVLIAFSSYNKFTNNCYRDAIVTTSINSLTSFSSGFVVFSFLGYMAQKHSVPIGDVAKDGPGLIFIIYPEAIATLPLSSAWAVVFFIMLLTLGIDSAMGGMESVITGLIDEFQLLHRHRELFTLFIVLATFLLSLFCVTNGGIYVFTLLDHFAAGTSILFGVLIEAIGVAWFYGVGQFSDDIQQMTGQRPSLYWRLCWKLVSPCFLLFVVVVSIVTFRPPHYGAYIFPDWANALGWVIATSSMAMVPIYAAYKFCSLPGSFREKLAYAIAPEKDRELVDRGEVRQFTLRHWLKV
Excerpt: as §1

norepinephrine transporter (NET), sequence (P23975 whole entry, species assumed): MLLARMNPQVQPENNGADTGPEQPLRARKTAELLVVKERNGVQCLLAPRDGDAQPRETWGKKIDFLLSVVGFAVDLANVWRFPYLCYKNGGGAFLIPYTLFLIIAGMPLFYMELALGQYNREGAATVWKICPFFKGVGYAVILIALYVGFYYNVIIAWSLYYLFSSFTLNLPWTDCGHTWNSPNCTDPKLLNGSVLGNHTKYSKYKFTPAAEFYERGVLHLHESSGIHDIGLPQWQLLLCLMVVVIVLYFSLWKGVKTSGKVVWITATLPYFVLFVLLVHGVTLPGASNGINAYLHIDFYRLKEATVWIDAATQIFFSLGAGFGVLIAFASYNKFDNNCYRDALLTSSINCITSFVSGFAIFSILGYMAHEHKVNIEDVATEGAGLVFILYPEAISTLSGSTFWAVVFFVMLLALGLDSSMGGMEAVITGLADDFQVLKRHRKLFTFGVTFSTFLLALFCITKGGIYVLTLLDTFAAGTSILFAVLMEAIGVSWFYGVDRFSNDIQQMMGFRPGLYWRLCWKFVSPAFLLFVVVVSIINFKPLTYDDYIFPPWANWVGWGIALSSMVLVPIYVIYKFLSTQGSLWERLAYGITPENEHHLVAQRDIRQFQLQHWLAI

Compound	NE/5-HT ratio [1]	NE/DA ratio [1]	Ki [1] [µM]	5-HT/DA ratio [2]	Ki [2] [µM]	higher activity at 5-HTT vs. DAT [2]	Ki [3] [µM]	activity at all three transporters ([1]; NET, 5-HTT and DAT)	decrease of norepinephrine reuptake activity vs. 5a ([1]; fluoro substituent, 5d vs. 5a)	Ki at the 5-HTT higher than at the NET ([1]; selectivity NET vs 5-HTT) [fold]	Ki at the DAT higher than at the NET ([1]; selectivity NET vs DAT) [fold]	higher activity at 5-HTT vs. the NET ([2]; selectivity 5-HTT vs NET)
COC(=O)C1C2CC3CCC1N3CC2=Cc1ccc(OC)cc1 (stereo not shown) [5c]	3.37	0.06	0.187 ± 0.0046	0.02	0.0557 ± 0.0038	50 fold	3.13 ± 0.16	–	–	–	–	–
COC(=O)C1C2CC3CCC1N3CC2=Cc1ccccc1 (single isomer, unassigned) [compound 6]	0.2	0.3	1.53 ± 0.15	1.48	7.48 ± 0.25	–	5.07 ± 0.31	only weakly active	–	–	–	–
COC(=O)C1C2CC3CCC1N3CC2=Cc1ccoc1 (stereo not shown) [5g]	0.33	0.09	0.164 ± 0.0028	0.26	0.498 ± 0.0655	–	1.88 ± 0.01	–	–	–	–	–
COC(=O)C1C2CC3CCC1N3CC2=Cc1ccc(F)cc1 (stereo not shown) [5d]	1.74	0.09	0.584 ± 0.163	0.05	0.335 ± 0.0455	–	6.62 ± 0.46	–	about 10 factor	–	–	–
COC(=O)C1C2CC3CCC1N3CC2=Cc1ccco1 (stereo not shown) [5f]	0.03	0.05	0.111 ± 0.0127	1.82	3.68 ± 0.19	–	2.02 ± 0.19	–	–	–	–	–
COC(=O)C1C2CC3CCC1N3CC2=Cc1ccccc1 (single isomer, unassigned) [5a]	0.05	0.11	0.053 ± 0.0161	2.36	1.14 ± 0.07	–	0.481 ± 0.0108	–	–	20	9	–
COC(=O)C1C2CC3CCC1N3CC2=Cc1cccc2ccccc12 (stereo not shown) [5e]	44.5	0.55	5.37 ± 0.58	0.01	0.121 ± 0.0034	–	9.72 ± 0.7	–	–	–	–	–
COC(=O)C1C2CC3CCC1N3CC2=Cc1ccc(Cl)c(Cl)c1 (stereo not shown) [5b]	50.6	0.52	1 ± 0.28	0.01	0.0198 ± 0.0005	about 100 fold	1.92 ± 0.26	–	–	–	–	about 50 fold
